The subject of data set [1] is MES SA/Dx cells (doxorubicin-resistant uterine sarcoma line, MDR1 upregulated). Description: In vitro cell killing by calicheamicin and linker-drug constructs (CellTiter-Glo, 72 hours). It counts as cell-based. On the procedure: (§1) 293 T cells were used along with MES SA and MES SA/Dx cells which comprise uterine sarcoma lines purchased from ATCC. The MES SA/Dx cell line was generated from MES SA cells cultured with increasing amounts of doxorubicin resulting in 100-fold resistance to doxorubicin and upregulation of MDR1.
(§2) The cells were cultured in a T75 flask to ˜50-80% confluency and harvested with trypsin into a single cell suspension. Five hundred (500) cells per well were seeded in tissue culture plates in 50 μL/well culture media and incubated at 37° C. for 18-24 hours. Compounds were diluted as 400× final desired concentrations in DMSO. Serial dilutions in DMSO were then diluted in culture media for a final DMSO concentration of 0.25% and 50 μL/well of the final dilution was added to the cells (Vf=100 μL). Upon plating and treatment, cells were returned to the incubator for an additional 72 hours. CellTiter-Glo reagent was prepared per manufacturer's instructions and added at 100 μL/well to the cultures. CellTiter-Glo allows for relative enumeration of metabolically active cells by quantifying intracellular ATP concentrations. After 5 minutes of incubation with CellTiter-Glo at ambient room temperature, 125 μL/well of the Cell Titer Glo/cell lysate solution was transferred into black assay plates, which were then read in a luminometer within 30 minutes.

A further data set relates to 293 T cells. The data set is described as above. It counts as cell-based. On the procedure: as §1, §2
In data set [2] the test system is MES SA cells (uterine sarcoma line). Described as above. It counts as cell-based. The following applies: for IC50: MES SA. As to the method:
as §1, §2

Another data set concerns the target Cathepsin B (Homo sapiens, UniProt P07858). Nature of the data set: Cathepsin B cleavage assay of dipeptide linker-drug constructs. The format is biochemical. The following applies: NAC-quenched linker-drug, 2.5, 5 or 10 mol % enzyme, pH 6.0, room temperature, 15-90 min. As to the method: Initially linker drug constructs from Examples 3 and 4 were treated with IM N-acetyl cysteine solution to quench maleimide functionality prior to the cathepsin B treatment. Excess of N-acetyl cysteine is used to activate the Cathepsin B.
More specifically quenched linker-drugs in 1:1 acetonitrile:water solution (20 ul) were diluted with 20 mM HisC1 pH 6.0 to a final acetonitrile content of 10% v/v ([…]). Cathepsin B enzyme was added to result in 2.5 mol %, 5 mol % or 10 mol % enzyme relative to the linker-drug. Reactions were vortexed gently and kept at room temperature. At the time points of 15, 30, 60 and 90 min 3 ul of the reaction mixture were placed into the total recovery vial containing 5 uL Tris pH 9, 2 uL 100 mM […] (DHAA), 15 ul water. The samples were analyzed using Analytical Method B set forth above. Conversion was calculated based on the decrease of the starting material peak area.

[3] abbreviates: LINKER DRUG IVK (1000 nM start, 10X dilutions).
The mark [4] stands for this setting: SMALL MOLECULE IVK (10 nM start, 5X dilutions).
[5] abbreviates: SMALL MOLECULE IVK (10 nM start, 5X dilutions), listed as N acetyl calicheamicin (lot B).

Bounds are passed on as bounds.

Take `CCN(C(C)=O)[C@H]1CO[C@@H](O[C@H]2[C@H](O[C@H]3C#C/C=C\C#C[C@]4(O)CC(=O)C(NC(=O)OC)=C3/C4=C\CSSC(C)(C)CCC(=O)NCCNC(=O)OCc3ccc(NC(=O)[C@H](CCCNC(N)=O)NC(=O)[C@@H](NC(=O)CCCCCN4C(=O)C=CC4=O)C(C)C)cc3)O[C@H](C)[C@@H](NO[C@H]3C[C@H](O)[C@H](SC(=O)c4c(C)c(I)c(O[C@@H]5O[C@@H](C)[C@H](O)[C@@H](OC)[C@H]5O)c(OC)c4OC)[C@@H](C)O3)[C@H]2O)C[C@@H]1OC` [Val-Cit calicheamicin]: the IC50 in data set [1] (setting [3]) is above 1000 nM; in the data set with 293 T cells (setting [3]), 46 nM; in data set [2] (setting [3]) it was 6.3 nM. In addition, the “cleavage by Cathepsin B” value on Cathepsin B is reported as “effectively cleaved”. Besides, at Cathepsin B, the “rate of cleavage by Cathepsin B, compared between constructs” value is on record as “cleaved more rapidly than the Val-Ala dipeptidyl construct”.

`CCN(C(C)=O)[C@H]1CO[C@@H](O[C@H]2[C@H](O[C@H]3C#C/C=C\C#C[C@]4(O)CC(=O)C(NC(=O)OC)=C3/C4=C\CSSC(C)(C)CCC(=O)NCCNC(=O)OCc3ccc(NC(=O)[C@H](C)NC(=O)[C@@H](NC(=O)CCCCCN4C(=O)C=CC4=O)C(C)C)cc3)O[C@H](C)[C@@H](NO[C@H]3C[C@H](O)[C@H](SC(=O)c4c(C)c(I)c(O[C@@H]5O[C@@H](C)[C@H](O)[C@@H](OC)[C@H]5O)c(OC)c4OC)[C@@H](C)O3)[C@H]2O)C[C@@H]1OC` [Val-Ala calicheamicin]: the “cleavage by Cathepsin B” value on Cathepsin B is recorded as “effectively cleaved”.

Take `CCN(C(C)=O)[C@H]1CO[C@@H](O[C@H]2[C@H](O[C@H]3C#C/C=C\C#C[C@]4(O)CC(=O)C(NC(=O)OC)=C3/C4=C\CSSSC)O[C@H](C)[C@@H](NO[C@H]3C[C@H](O)[C@H](SC(=O)c4c(C)c(I)c(O[C@@H]5O[C@@H](C)[C@H](O)[C@@H](OC)[C@H]5O)c(OC)c4OC)[C@@H](C)O3)[C@@H]2O)C[C@@H]1OC` [N acetyl calicheamicin (lot A), N-acetyl calicheamicin γ 1]: the IC50 in data set [1] (setting [4]) was found to be 30.6 nM; in data set [1] (setting [5]), 17.1 nM; in the data set with 293 T cells (setting [4]), 0.0409 nM; with 293 T cells (setting [5]), 0.052 nM; in data set [2] (setting [4]), 0.0308 nM; in data set [2] (setting [5]) it was 0.0693 nM. In addition, the “derived IC50 values, range of activity” value in data set [2] (summary of Table 5) was “picomolar range”.
